The record followed here is patent publication US20130280169A1, “CENTRAL NERVOUS SYSTEM TISSUE-LABELING COMPOSITION, METHOD FOR LABELING CENTRAL NERVOUS SYSTEM TISSUE, AND SCREENING METHOD USING CENTRAL NERVOUS SYSTEM TISSUE-LABELING COMPOSITION” (CANON KABUSHIKI KAISHA, priority 2009, published 2013).

The nature of series [1]: Excitation and fluorescence wavelength by FL4500 fluorescence spectrophotometer. The settings on record: aqueous solution.
Series [2] concerns mouse brain tissue section. The experiment in a line: Labeling of a mouse brain tissue section, confocal microscope. Particulars: 3-month-old B10 mouse, 10 μm frozen section, 1 ug/mL in PBS, incubation one hour. How it is done:
A 3-month-old B10 mouse was sacrificed by diethyl ether anesthesia, and the brain is collected. The brain thus removed is embedded in an OCT compound, and then frozen in isopentane cooled with liquid nitrogen. The resulting brain was sliced into thin sections of approximately 10 μm in thickness in a cryostat cooled to −20° C. The thin sections were then placed on a slide glass and dried, whereby a section of the brain tissue was prepared. To the section of […] tissue thus prepared, a 1 ug/mL solution of the compound (13) in PBS was added, followed by incubation for one hour. After one hour, the slide glass was washed with PBST (PBS containing 0.2% Triton-X100) three times, and then sealed with a cover glass. Upon observation of the slide glass by a confocal microscope (manufactured by Carl Zeiss, Inc., Pascal
A 3-month-old B10 mouse was sacrificed by diethyl ether anesthesia, and the brain is collected. The brain thus removed is embedded in an OCT compound, and then frozen in isopentane cooled with liquid nitrogen. The resulting brain was sliced into thin sections of approximately 10 μm in thickness in a cryostat cooled to −20° C. The thin sections were then placed on a slide glass and dried, whereby a section of the brain tissue was prepared. To the section of […] tissue thus prepared, a 1 ug/mL solution of the compound (27) in PBS was added, followed by incubation for one hour. […]

Series [3] has as its system central nervous system tissues of juvenile zebrafish (7 dpf). Briefly: Labeling the central nervous system tissue of live 7 dpf juvenile zebrafish by immersion in labeling solution. Particulars: labeling solution 1 μg/mL.
Description: Subsequently, the labeling solution 1 in the well was removed and replaced by 1 mL of distilled water. This operation was repeated three times. Then, juvenile zebrafish was removed from the well and embedded in 5% low melting point agarose gel on a slide glass so as to restrict movement, and the state of labeling in the central nervous system tissues were observed from the lateral side of zebrafish by a fluorescence stereomicroscope (manufactured by Leica Microsystems, MZ16FA). Also, the brain nerve tissues were observed from the parietal region by a confocal microscope (manufactured by Carl Zeiss, Inc., Pascal Exciter).
Series [4] concerns mouse brain. Briefly: Labeling of mouse brain after intraperitoneal administration. The class given is in vivo. Particulars: 3-month-old B10 mouse, 0.2 ml single intraperitoneal dose, brain collected after one hour.
Description: The compound (13) is added to an equimolar solution of NaOH so that a concentration of 10 mg/ml is reached, and the resulting mixture is centrifuged at 14 krpm for five minutes to obtain a supernatant. Then, 0.2 ml of the supernatant thus obtained is intraperitoneally administered to a 3-month-old B10 mouse in a single dose. After one hour, the animal thus treated is sacrificed by diethyl ether anesthesia, and the brain is collected. The brain thus removed is embedded in an OCT compound, and then frozen in isopentane cooled with liquid nitrogen. The resulting brain was sliced into thin sections of approximately 10 μm in thickness in a cryostat cooled to −20° C. The thin sections were then placed on a slide glass and dried, whereby a section of the brain tissue was prepared. The brain tissue section thus prepared was observed under a confocal microscope (manufactured by Carl Zeiss, Inc., Pascal Exciter).
After one hour, the animal thus treated is sacrificed by diethyl ether anesthesia, and the brain is collected. The brain thus removed is embedded in an OCT compound, and then frozen in isopentane cooled with liquid nitrogen. The resulting brain was sliced into thin sections of approximately 10 μm in thickness in a cryostat cooled to −20° C. The thin sections were then placed on a slide glass and dried, whereby a section of the brain tissue was prepared. […]
Where [5] appears, read: 10 mg/mL DMSO solution diluted 500-fold with distilled water.
Setting [6] is: 10 mg/mL DMSO solution diluted 500-fold with distilled water (Table 2).
[7] abbreviates: juvenile zebrafish, one hour (Table 2).

Take `CCN1c2ccc(/C=C3/SC(=S)N(CCC(=O)O)C3=O)cc2C2CCCC21` (centres unmarked) [(13)]: in series [1] (setting [5]), the λem was determined as 604 and the λex is given as 576. Moreover, the “Labeling property in a mouse brain tissue section” value in series [2] is recorded as “confirmed to exert a labeling property”. Moreover, the Labeling property entry in series [3] (7 dpf juvenile zebrafish, one hour) was “++”. The “Labeling property in a mouse brain by intraperitoneal administration” value in series [4] was “confirmed to exert a labeling property”.
As to `CCN(CC)c1ccc2cc(-c3nc4ccc(C)cc4o3)c(=O)oc2c1` [Compound 27], in series [1] (setting [6]), the “Excitation wavelength λex” value turned out to be 472, the “Fluorescence wavelength λem” value turned out to be 504 and the “Stokes shift λem − λex” value is 32. For the same molecule, the “Labeling property in a mouse brain tissue section” value in series [2] is reported as “confirmed to exert a labeling property”. In series [3] (setting [7]), the Fluorescence sensitivity entry was “++” and the Labeling property result is on record as “++”.
